# Measured values taken from patent US20240270762A1, “PENICILLIN-BINDING PROTEIN INHIBITORS” (priority 2021, published 2024).
# Key:
# N. gonorrhoeae WHO X = experiment: Liquid broth MIC in Fastidious broth; conditions: Neisseria gonorrhoeae, read-out: Minimum Inhibitory Concentration (MIC), N. gonorrhoeae WHO X
# K. pneumoniae SI-117 = experiment: microbe, parasite or virus in culture; type: cell-based; conditions: Klebsiella pneumoniae, SI117, read-out: MIC K. pneumoniae SI-117
# [1] = biological target: T1, PBP3 from Pseudomonas aeruginosa (PAO1) (Pseudomonas aeruginosa, UniProt G3XD46); experiment: Bocillin-FL fluorescence polarization competition binding, P. aeruginosa PBP3; conditions: Binding affinity to P. aeruginosa PBP3; fluorescence polarization competition binding assay using Bocillin-FL; read-out: P. aeruginosa PBP3 Potency
# T1 construct: made in house
# How it was run: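 Purified PBP was preincubated with inhibitor (E. coli PBP3 1.5 μM, 30 min; P. aeruginosa PBP3 0.75 μM, A. baumannii PBP3 0.2 μM and PBP1a 1 μM, 15 min), then Bocillin-FL (0.1 μM; 0.05 μM for PBP1a) added and FP read up to 60 min. EC50 = 50% loss of bound probe.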
# N. gonorrhoeae WHO M = experiment: Liquid broth MIC in Fastidious broth; conditions: Neisseria gonorrhoeae, read-out: Minimum Inhibitory Concentration (MIC), N. gonorrhoeae WHO M
# E. coli AG100 = experiment: microbe, parasite or virus in culture; type: cell-based; conditions: Escherichia coli, AG100, read-out: MIC E. coli AG100
# [2] = test system: P. aeruginosa (ΔmexAB-oprM); experiment: Broth microdilution MIC in CAMHB; type: cell-based; conditions: Pseudomonas aeruginosa; read-out: MIC P. aeruginosa ΔmexAB-oprM
# E. coli AG100A = experiment: Broth microdilution MIC in CAMHB; type: cell-based; conditions: Escherichia coli, read-out: MIC E. coli AG100A
# N. gonorrhoeae WHO L = experiment: Liquid broth MIC in Fastidious broth; conditions: Neisseria gonorrhoeae, read-out: Minimum Inhibitory Concentration (MIC), N. gonorrhoeae WHO L
# P. aeruginosa ATCC 35151 = experiment: microbe, parasite or virus in culture; type: cell-based; conditions: Pseudomonas aeruginosa, ATCC35151, read-out: MIC P. aeruginosa ATCC 35151
# E. coli 901C = experiment: microbe, parasite or virus in culture; type: cell-based; conditions: Escherichia coli, read-out: MIC E. coli 901C
# N. gonorrhoeae WHO Z = experiment: Liquid broth MIC in Fastidious broth; conditions: Neisseria gonorrhoeae, read-out: Minimum Inhibitory Concentration (MIC), N. gonorrhoeae WHO Z
# N. gonorrhoeae FA1090 = experiment: Liquid broth MIC in Fastidious broth; conditions: Neisseria gonorrhoeae, FA1090, read-out: Minimum Inhibitory Concentration (MIC), N. gonorrhoeae FA 1090
# N. gonorrhoeae WHO Q = experiment: Liquid broth MIC in Fastidious broth; conditions: Neisseria gonorrhoeae, read-out: Minimum Inhibitory Concentration (MIC), N. gonorrhoeae WHO Q
# K. pneumoniae 848844 = experiment: microbe, parasite or virus in culture; type: cell-based; conditions: Klebsiella pneumoniae, 848844, read-out: MIC K. pneumoniae 848844
# A. baumannii ATCC 19606 = experiment: microbe, parasite or virus in culture; type: cell-based; conditions: Acinetobacter baumannii, ATCC19606, read-out: MIC, A. baumannii ATCC 19606
# [3] = test system: N. gonorrhoeae ATCC 49226; experiment: Liquid broth MIC in Fastidious broth; conditions: Neisseria gonorrhoeae, ATCC49226, read-out: Minimum Inhibitory Concentration (MIC), N. gonorrhoeae ATCC 49226
# T1 sequence (G3XD46 whole entry): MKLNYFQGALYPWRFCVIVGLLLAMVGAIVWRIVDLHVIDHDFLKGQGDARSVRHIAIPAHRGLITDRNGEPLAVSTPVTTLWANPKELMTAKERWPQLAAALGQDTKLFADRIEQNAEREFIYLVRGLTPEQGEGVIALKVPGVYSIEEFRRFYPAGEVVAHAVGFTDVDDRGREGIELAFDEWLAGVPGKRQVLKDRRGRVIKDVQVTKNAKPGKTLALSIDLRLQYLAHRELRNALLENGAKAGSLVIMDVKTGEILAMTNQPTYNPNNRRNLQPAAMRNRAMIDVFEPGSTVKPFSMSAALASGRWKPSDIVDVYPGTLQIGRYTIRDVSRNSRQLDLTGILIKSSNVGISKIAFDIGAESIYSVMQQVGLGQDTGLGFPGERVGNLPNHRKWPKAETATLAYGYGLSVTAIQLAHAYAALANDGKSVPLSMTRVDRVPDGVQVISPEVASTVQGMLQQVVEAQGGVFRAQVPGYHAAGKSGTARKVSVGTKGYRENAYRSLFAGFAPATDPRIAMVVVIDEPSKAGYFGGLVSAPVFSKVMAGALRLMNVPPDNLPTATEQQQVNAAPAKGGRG
SMILES,MIC (N. gonorrhoeae WHO X),MIC (K. pneumoniae SI-117),IC50 [1],MIC (N. gonorrhoeae WHO M),MIC (E. coli AG100),MIC [2],MIC (E. coli AG100A),MIC (N. gonorrhoeae WHO L),MIC (P. aeruginosa ATCC 35151),MIC (E. coli 901C),MIC (N. gonorrhoeae WHO Z),MIC (N. gonorrhoeae FA1090),MIC (N. gonorrhoeae WHO Q),MIC (K. pneumoniae 848844),MIC (A. baumannii ATCC 19606),MIC [3]
"CN1CCC[C@@H]1C(=O)N[C@@H](C(=O)N[C@H]1Cc2cccc(C(=O)O)c2OB1O)c1ccc(P(=O)(O)O)cc1 (racemic) [Example 54, (R)-2-hydroxy-3-((S)-2-((R)-1-methylpyrrolidine-2-carboxamido)-2-(4-phosphonophenyl)acetamido)-3,4-dihydro-2H-benzo[e][1,2]oxaborinine-8-carboxylic acid and (R)-2-hydroxy-3-((R)-2-((R)-1-methylpyrrolidine-2-carboxamido)-2-(4-phosphonophenyl)acetamido)-3,4-dihydro-2H-benzo[e][1,2]oxaborinine-8-carboxylic acid]",16 to 32 µg/mL,> 128 µg/mL,50 to 250 µM,4 to 8 µg/mL,> 128 µg/mL,> 128 µg/mL,> 128 µg/mL,16 to 32 µg/mL,32 to 64 µg/mL,32 to 64 µg/mL,16 to 32 µg/mL,4 to 8 µg/mL,16 to 32 µg/mL,> 128 µg/mL,> 128 µg/mL,16 to 32 µg/mL
"CCN1CCN(C(=O)N[C@H](C(=O)N[C@H]2Cc3ccc(F)c(C(=O)O)c3OB2O)c2ccc(P(=O)(O)O)cc2)C(=O)C1=O (single isomer, unassigned) [Example 9]",1 to 2 µg/mL,> 128 µg/mL,10 to 50 µM,< 1 µg/mL,> 128 µg/mL,> 128 µg/mL,> 128 µg/mL,4 to 8 µg/mL,8 to 16 µg/mL,2 to 4 µg/mL,< 1 µg/mL,< 1 µg/mL,1 to 2 µg/mL,> 128 µg/mL,> 128 µg/mL,1 to 2 µg/mL
"CCN1CCN(C(=O)N[C@@H](C(=O)N[C@H]2Cc3ccc(F)c(C(=O)O)c3OB2O)c2ccc(P(=O)(O)O)cc2)C(=O)C1=O (single isomer, unassigned) [Example 10]",< 1 µg/mL,> 128 µg/mL,< 10 µM,< 1 µg/mL,> 128 µg/mL,32 to 64 µg/mL,32 to 64 µg/mL,< 1 µg/mL,< 1 µg/mL,< 1 µg/mL,< 1 µg/mL,< 1 µg/mL,< 1 µg/mL,> 128 µg/mL,32 to 64 µg/mL,< 1 µg/mL
"CS(=O)(=O)N1CCN(C(=O)N[C@@H](C(=O)N[C@H]2Cc3cccc(C(=O)O)c3OB2O)c2ccc(P(=O)(O)O)c(F)c2F)C1=O (single isomer, unassigned) [Example 13]",< 1 µg/mL,> 128 µg/mL,< 10 µM,< 1 µg/mL,32 to 64 µg/mL,32 to 64 µg/mL,8 to 16 µg/mL,< 1 µg/mL,2 to 4 µg/mL,< 1 µg/mL,< 1 µg/mL,< 1 µg/mL,< 1 µg/mL,> 128 µg/mL,32 to 64 µg/mL,< 1 µg/mL
"CS(=O)(=O)N1CCN(C(=O)N[C@@H](C(=O)N[C@H]2Cc3cccc(C(=O)O)c3OB2O)c2ccc(P(=O)(O)O)c(F)c2)C1=O (single isomer, unassigned) [Example 15]",< 1 µg/mL,> 128 µg/mL,< 10 µM,< 1 µg/mL,32 to 64 µg/mL,32 to 64 µg/mL,8 to 16 µg/mL,< 1 µg/mL,2 to 4 µg/mL,< 1 µg/mL,< 1 µg/mL,< 1 µg/mL,< 1 µg/mL,> 128 µg/mL,32 to 64 µg/mL,< 1 µg/mL
"CS(=O)(=O)N1CCN(C(=O)N[C@@H](C(=O)N[C@H]2Cc3cccc(C(=O)O)c3OB2O)c2cc(F)c(P(=O)(O)O)c(F)c2)C1=O (single isomer, unassigned) [Example 18]",< 1 µg/mL,> 128 µg/mL,< 10 µM,< 1 µg/mL,32 to 64 µg/mL,32 to 64 µg/mL,8 to 16 µg/mL,< 1 µg/mL,2 to 4 µg/mL,< 1 µg/mL,< 1 µg/mL,< 1 µg/mL,< 1 µg/mL,> 128 µg/mL,32 to 64 µg/mL,< 1 µg/mL
